Tests used:
[1] = Particle size distribution (PSD) by laser diffraction with a Malvern apparatus; assay type: physicochemical; conditions: lactose 90-150 microns + 0.5% w/w MgSt, CYCLOMIX at given speed and time; mean of three determinations
Source text: In general terms, the particle size of the particles is quantified by measuring a characteristic equivalent sphere diameter, known as volume diameter, by laser diffraction.
In the present application, the particle size interval is expressed in terms of […]. Otherwise, the particle size distribution is expressed in terms of: i) the volume median diameter (VMD) which corresponds to the diameter of 50 percent by weight or volume respectively, of the particles, e.g. d(v0.5); and ii) the volume diameter (VD) in microns of 10% and 90% of the particles, respectively, e.g. d(v0.1) and d(v0.9).
iv) the particle size distribution (PSD) by laser diffraction with a Malvern apparatus; the water contact angle by the sessile drop method wherein the powder is in the form of a disc obtained by compaction (compressed powder disc method) according to the procedure reported above in the description;
The results are expresses as mean of three determinations. In Table 2, the water contact angle values and the corresponding extent of surface coating calculated from the Cassie and Baxter equation are also reported. Said equation was applied to the experimental values of the penultimate column of Table 2 using the reference values for magnesium state alone and alpha-lactose monohydrate alone. The variability in terms of S.D. of the experimental values is always less than ±10%, typically of ±5%.

[2] = Water contact angle by sessile drop (compressed powder disc method); extent of surface coating from the Cassie and Baxter equation; assay type: physicochemical; conditions: 0.5% w/w MgSt carriers
Source text: The extent to which magnesium stearate coats the surface of the lactose particles may be determined by first measuring the water contact angle, and then applying the equation known in the literature as Cassie and Baxter, cited at page 338 of Colombo I et al., Il Farmaco, 1984, 39(10), pp. 328-341, which is incorporated herein by reference in its entirety, and reported below. cos θmixture=fMgSt cos θMgst+flactore cos θlactose where
fMgst and flactore are the surface area fractions of magnesium stearate and of lactose;
θMgSt is the water contact angle of magnesium stearate;
θlactose is the water contact angle of lactose; and
θmixture are the experimental contact angle values. […]
If a fully automated procedure is not available, the base (b) and the height (h) of the drop are measured on the display using a mobile reading scale, then the water contact angles (WCA) are calculated by applying the following formula: WCA=[arctg2h/b]×2×180/[…]
Typically the values are calculated as a mean of three different measurements taken at room temperature. […]
The results are expresses as mean of three determinations. In Table 2, the water contact angle values and the corresponding extent of surface coating calculated from the Cassie and Baxter equation are also reported. […]

## O.OC[C@H]1O[C@@H](O[C@H]2[C@H](O)[C@@H](O)[C@@H](O)O[C@@H]2CO)[C@H](O)[C@@H](O)[C@H]1O [α-lactose monohydrate, alpha-lactose monohydrate]
[1]
  PSD d(v0.1): 96.4
  PSD d(v0.5): 132.2
  PSD d(v0.9): 182.3
[2]; compressed powder disc, sessile drop
  Water Contact Angle: 8.35 E
[2]; calculated from the Cassie and Baxter equation
  Extent of Surface Coating: 0%
